Converted amounts (≈) assume the structure as drawn.
Legend:
[1] = system: HCT-116; assay: Antitumor activity against human HCT116 cells xenografted in athymic nude mouse assessed as tumor growth inhibition at 6.5 mg/kg, po qd measured on day 21; assay type: functional; settings: HCT-116, po, 504 h, read-out: TGI
[2] = target: Cytochrome P450 2D6 (Homo sapiens, UniProt P10635); assay: Inhibition of CYP2D6 (unknown origin) preincubated for 10 mins followed by addition of AMMC as substrate measured after 30 mins in presence of NADP by fluorescence analysis; assay type: ADME
[3] = target: Cytochrome P450 2C9 (Homo sapiens, UniProt P11712); assay: Inhibition of CYP2C9 (unknown origin) preincubated for 10 mins followed by addition of MFC as substrate measured after 45 mins in presence of NADP by fluorescence analysis; assay type: ADME
[4] = Dissociation constant, pKa of the compound; assay type: physicochemical
[5] = Toxicity in po dosed athymic nude mouse xenografted with human HCT116 cells assessed as weight loss measured on day 21; assay type: organism-based; settings: in vivo
[6] = Toxicity in po dosed athymic nude mouse; assay type: organism-based; settings: in vivo
[7] = Solubility of the compound at pH 7.4; assay type: physicochemical; settings: buffer
[8] = AUC (0 to infinity) in beagle dog at 5 mg/kg, po by LC-MS/MS analysis; assay type: ADME, organism-based, Canis lupus familiaris; design: dose 5 mg/kg, route oral, time infinity; settings: in vivo
[9] = target: T1, Cytochrome P450 1A2 (Homo sapiens, UniProt P05177); assay: Inhibition of CYP1A2 (unknown origin) preincubated for 10 mins followed by addition of CEC as substrate measured after 15 mins in presence of NADP by fluorescence analysis; assay type: ADME
T1 sequence (P05177 whole entry): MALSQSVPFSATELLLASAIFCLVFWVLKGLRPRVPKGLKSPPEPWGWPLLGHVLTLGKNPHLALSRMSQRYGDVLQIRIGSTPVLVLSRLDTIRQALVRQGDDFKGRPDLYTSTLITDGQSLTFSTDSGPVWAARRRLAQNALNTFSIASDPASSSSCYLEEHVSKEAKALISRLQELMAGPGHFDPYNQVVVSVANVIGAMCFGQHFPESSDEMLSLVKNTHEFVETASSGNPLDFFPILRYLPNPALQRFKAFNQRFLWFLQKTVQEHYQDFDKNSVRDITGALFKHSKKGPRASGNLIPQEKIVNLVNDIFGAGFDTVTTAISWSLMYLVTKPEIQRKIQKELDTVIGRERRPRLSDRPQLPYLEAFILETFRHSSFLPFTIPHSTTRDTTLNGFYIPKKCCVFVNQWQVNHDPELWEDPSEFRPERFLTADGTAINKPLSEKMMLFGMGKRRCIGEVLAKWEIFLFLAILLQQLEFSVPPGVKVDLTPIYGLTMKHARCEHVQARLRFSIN

[10] = AUC in athymic CD-1 nude mouse at 10 mg/kg, po by LC-MS/MS analysis; assay type: ADME, organism-based; settings: in vivo
[11] = target: T2, Cytochrome P450 3A4 (Homo sapiens, UniProt P08684); assay: Inhibition of CYP3A4 (unknown origin) preincubated for 10 mins followed by addition of DBF as substrate measured after 10 mins in presence of NADP by fluorescence analysis; assay type: ADME
[12] = Bioavailability in Sprague-Dawley rat at 5 mg/kg by LC-MS/MS analysis; assay type: ADME, organism-based; settings: in vivo
[13] = Solubility of the compound at pH 2; assay type: physicochemical; settings: buffer
[14] = target: T2, Cytochrome P450 3A4; assay: Inhibition of CYP3A4 (unknown origin) preincubated for 10 mins followed by addition of BFC as substrate measured after 10 mins in presence of NADP by fluorescence analysis; assay type: ADME
[15] = system: OVCAR-3; assay: Growth inhibition of human OVCAR3 cells measured after 5 days by sulforhodamine B assay; assay type: functional; settings: OVCAR-3, 120 h
[16] = Clearance in beagle dog at 1 mg/kg, iv or 5 mg/kg, po by LC-MS/MS analysis; assay type: ADME, organism-based, Canis lupus familiaris; settings: in vivo
[17] = system: HCT-116; assay: Antitumor activity against human HCT116 cells xenografted in athymic nude mouse assessed as tumor growth inhibition measured on day 21 relative to vehicle-treated control; assay type: functional
[18] = Cmax in athymic CD-1 nude mouse at 10 mg/kg, po by LC-MS/MS analysis; assay type: ADME, organism-based; design: dose 10 mg/kg, route oral; settings: in vivo
[19] = Toxicity in po dosed athymic nude mouse xenografted with human HCT116 cells assessed as induction of overt adverse signs measured on day 21; assay type: organism-based; settings: in vivo
[20] = system: MDA-MB-468; assay: Growth inhibition of human MDA-MB-468 cells measured after 5 days by sulforhodamine B assay; assay type: functional; settings: MDA-MB-468, 120 h
[21] = target: Cytochrome P450 2C19 (Homo sapiens, UniProt P33261); assay: Inhibition of CYP2C19 (unknown origin) preincubated for 10 mins followed by addition of MFC as substrate measured after 30 mins in presence of NADP by fluorescence analysis; assay type: ADME
[22] = system: HCT-116; assay: Antitumor activity against human HCT116 cells xenografted in athymic nude mouse assessed as tumor growth inhibition at 5.5 mg/kg, po qd measured on day 21; assay type: functional; settings: HCT-116, po, 504 h, read-out: TGI
[23] = system: HCT-116; assay: Growth inhibition of human HCT116 cells measured after 5 days by sulforhodamine B assay; assay type: functional; settings: HCT-116, 120 h
[24] = Clearance in Sprague-Dawley rat at 1 mg/kg, iv or 5 mg/kg, po by LC-MS/MS analysis; assay type: ADME, organism-based; settings: in vivo
[25] = AUC (0 to infinity) in Sprague-Dawley rat at 5 mg/kg, po by LC-MS/MS analysis; assay type: ADME, organism-based; design: dose 5 mg/kg, time infinity, route oral; settings: in vivo
[26] = system: HT-29; assay: Antitumor activity against human HT-29 cells xenografted in athymic nude mouse assessed as tumor growth inhibition at 6.5 mg/kg, po qd measured on day 21; assay type: functional; settings: HT-29, po, 504 h, read-out: TGI
[27] = Bioavailability in beagle dog at 5 mg/kg by LC-MS/MS analysis; assay type: ADME, organism-based, Canis lupus familiaris; settings: in vivo
[28] = target: T3, Dual specificity protein kinase TTK (Homo sapiens, UniProt P33981)
T3 sequence (P33981 whole entry): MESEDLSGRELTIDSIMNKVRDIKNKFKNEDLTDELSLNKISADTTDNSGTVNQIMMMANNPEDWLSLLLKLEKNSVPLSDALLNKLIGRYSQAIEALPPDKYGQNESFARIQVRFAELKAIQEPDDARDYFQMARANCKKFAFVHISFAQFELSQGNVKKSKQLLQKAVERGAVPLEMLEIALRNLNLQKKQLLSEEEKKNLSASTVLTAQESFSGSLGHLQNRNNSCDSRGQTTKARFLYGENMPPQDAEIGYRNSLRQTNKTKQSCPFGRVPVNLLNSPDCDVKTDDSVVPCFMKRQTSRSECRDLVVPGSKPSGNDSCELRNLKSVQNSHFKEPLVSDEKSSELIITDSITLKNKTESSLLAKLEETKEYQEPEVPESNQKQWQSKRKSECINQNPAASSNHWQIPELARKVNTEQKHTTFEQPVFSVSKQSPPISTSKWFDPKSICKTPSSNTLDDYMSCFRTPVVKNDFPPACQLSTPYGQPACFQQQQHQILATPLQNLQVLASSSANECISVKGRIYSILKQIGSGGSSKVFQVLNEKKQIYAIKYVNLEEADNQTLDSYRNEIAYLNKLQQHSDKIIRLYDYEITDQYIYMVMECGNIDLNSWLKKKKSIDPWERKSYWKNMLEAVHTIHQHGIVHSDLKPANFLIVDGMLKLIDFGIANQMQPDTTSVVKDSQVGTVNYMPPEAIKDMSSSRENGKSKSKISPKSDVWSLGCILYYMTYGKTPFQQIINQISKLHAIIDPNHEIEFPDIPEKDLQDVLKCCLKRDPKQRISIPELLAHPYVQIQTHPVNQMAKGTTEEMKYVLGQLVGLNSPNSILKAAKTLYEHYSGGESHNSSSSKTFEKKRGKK

[29] = Drug uptake in po dosed mouse plasma; assay type: ADME, organism-based; settings: in vivo

T2 sequence (P08684 whole entry): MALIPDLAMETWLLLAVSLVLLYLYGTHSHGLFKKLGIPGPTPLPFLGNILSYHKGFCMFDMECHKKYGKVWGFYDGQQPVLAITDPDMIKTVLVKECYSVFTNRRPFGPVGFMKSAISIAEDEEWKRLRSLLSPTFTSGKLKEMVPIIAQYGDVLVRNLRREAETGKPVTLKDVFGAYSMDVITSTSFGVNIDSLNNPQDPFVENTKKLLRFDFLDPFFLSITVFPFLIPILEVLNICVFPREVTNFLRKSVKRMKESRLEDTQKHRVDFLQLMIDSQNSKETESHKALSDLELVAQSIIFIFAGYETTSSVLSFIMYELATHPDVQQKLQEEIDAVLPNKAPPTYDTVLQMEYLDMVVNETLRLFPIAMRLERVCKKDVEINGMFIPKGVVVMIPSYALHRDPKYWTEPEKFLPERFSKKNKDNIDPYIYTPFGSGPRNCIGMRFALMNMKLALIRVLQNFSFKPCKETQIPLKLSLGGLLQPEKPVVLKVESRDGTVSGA
Sequence of Cytochrome P450 2D6 (P10635 whole entry): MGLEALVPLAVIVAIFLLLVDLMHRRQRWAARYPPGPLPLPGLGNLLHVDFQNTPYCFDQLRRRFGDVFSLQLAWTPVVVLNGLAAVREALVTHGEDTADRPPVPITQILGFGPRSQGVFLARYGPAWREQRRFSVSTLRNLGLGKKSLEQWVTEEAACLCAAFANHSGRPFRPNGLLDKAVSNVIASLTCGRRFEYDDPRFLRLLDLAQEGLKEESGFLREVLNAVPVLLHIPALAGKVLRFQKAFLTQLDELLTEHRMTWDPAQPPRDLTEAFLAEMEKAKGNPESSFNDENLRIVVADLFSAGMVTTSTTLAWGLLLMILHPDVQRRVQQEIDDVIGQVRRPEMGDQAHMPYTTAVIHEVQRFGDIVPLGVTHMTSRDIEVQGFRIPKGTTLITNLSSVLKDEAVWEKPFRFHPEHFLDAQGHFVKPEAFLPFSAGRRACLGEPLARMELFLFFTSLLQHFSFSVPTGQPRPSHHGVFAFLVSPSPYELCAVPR
Sequence of Cytochrome P450 2C19 (P33261 whole entry): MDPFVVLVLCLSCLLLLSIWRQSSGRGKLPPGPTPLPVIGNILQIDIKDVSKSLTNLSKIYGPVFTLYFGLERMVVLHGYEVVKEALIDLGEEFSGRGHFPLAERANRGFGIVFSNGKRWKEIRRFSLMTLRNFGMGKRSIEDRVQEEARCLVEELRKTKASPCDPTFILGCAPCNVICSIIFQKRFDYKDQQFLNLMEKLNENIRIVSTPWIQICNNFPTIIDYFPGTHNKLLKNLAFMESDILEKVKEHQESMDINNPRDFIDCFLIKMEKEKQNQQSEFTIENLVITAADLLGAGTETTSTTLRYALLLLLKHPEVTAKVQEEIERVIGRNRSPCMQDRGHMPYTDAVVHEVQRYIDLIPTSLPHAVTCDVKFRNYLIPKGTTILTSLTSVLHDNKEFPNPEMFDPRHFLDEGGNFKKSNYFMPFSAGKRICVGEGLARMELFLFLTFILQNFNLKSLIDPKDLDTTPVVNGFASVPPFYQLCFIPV
Sequence of Cytochrome P450 2C9 (P11712 whole entry): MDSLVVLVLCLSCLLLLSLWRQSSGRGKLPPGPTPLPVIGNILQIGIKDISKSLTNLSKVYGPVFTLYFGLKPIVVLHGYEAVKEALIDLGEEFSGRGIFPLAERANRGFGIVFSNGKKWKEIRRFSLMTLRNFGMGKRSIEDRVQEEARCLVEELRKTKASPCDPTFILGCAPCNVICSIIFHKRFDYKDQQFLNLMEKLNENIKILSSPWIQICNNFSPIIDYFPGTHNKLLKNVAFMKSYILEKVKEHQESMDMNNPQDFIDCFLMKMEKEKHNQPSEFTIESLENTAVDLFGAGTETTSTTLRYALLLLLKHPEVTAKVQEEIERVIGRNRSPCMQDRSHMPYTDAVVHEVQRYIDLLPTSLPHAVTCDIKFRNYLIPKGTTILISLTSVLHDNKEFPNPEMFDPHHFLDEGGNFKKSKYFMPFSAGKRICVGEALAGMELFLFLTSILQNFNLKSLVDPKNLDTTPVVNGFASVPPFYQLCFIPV

| SMILES | inhibition in vivo at 6.5 mg/kg [1] [%] | pKa [4] | MTD [6] [mg/kg] | solubility [7] [mg/mL] | AUC(0-inf) [8] [µg·h/mL] | AUC [10] [µg·h/mL] | bioavailability [12] [%] | solubility [13] [mg/mL] | IC50 [14] [µM] | GI50 [15] [µM] | clearance [16] [L/h/kg] | Cmax [18] [µg/mL] | GI50 [20] [µM] | GI50 [23] [µM] | clearance [24] [L/h/kg] | AUC(0-inf) [25] [µg·h/mL] | inhibition in vivo at 6.5 mg/kg [26] [%] | bioavailability [27] [%] | other results |
| --- | --- | --- | --- | --- | --- | --- | --- | --- | --- | --- | --- | --- | --- | --- | --- | --- | --- | --- | --- |
| Cc1cc(-c2cnn3c(NC[C@H]4C[C@@](C)(O)C4)cc(Oc4cccnc4)nc23)ccc1C(=O)NC1CC1 [LUVIXASERTIB] | 68 | 3.7 | 6.5 | 0.0033 (≈ 6.62 µM) | 25 | 7.5 | 53 | 0.56 (≈ 1120 µM) | 0.51 | 0.004 | 0.294 | 2.5 | 0.002 | 0.002 | 0.84 | 3.4 | 60 | 114 | IC50 [2]: Not Active; IC50 [3]: 13 µM; Activity [5]: < 10%; IC50 [9]: Not Active; IC50 [11]: 14 µM; TGI [17]: Dose-dependent effect; Activity [19]: Non-Toxic; IC50 [21]: 8 µM; inhibition in vivo at 5.5 mg/kg [22]: 68% |
| Cc1cc(-c2cnn3c(NCCN4CCOCC4)cc(Oc4cccc(F)c4)nc23)ccc1C(=O)NC1CC1 | 72 | 6.7 | 6.5 | 0.0015 (≈ 2.83 µM) | 2.2 | 3.6 | 77 | 11 (≈ 20700 µM) | 0.78 | 0.26 | 1.74 | 1.2 | 0.02 | 0.001 | 2.04 | 1.9 | 41 | 77 | IC50 [28]: 0.0022 µM; Drug uptake [29]: Dose-dependent effect |

Reference: ChEMBL document CHEMBL4425165, “Discovery of Pyrazolo[1,5-a]pyrimidine TTK Inhibitors: CFI-402257 is a Potent, Selective, Bioavailable Anticancer Agent” (ACS Med Chem Lett, 2016)
